Source: patent publication US20200237909A1, “METHODS OF TREATING OR PREVENTING BREAST CANCER METASTASES USING ANTIBODIES TO JAGGED1 AND CHEMOTHERAPEUTIC AGENTS” (The Trustees of Princeton University, priority 2017, published 2020)
Where two headings read alike, the source gives them in different places.

Columns and labels:
[1] = test system: MSCs; assay: Stress inducers/inhibitors: Jagged1 expression and ROS production in MSCs; format: cell-based, mouse
Source text: Next, which signaling pathway is responsible for Jagged1 induction after chemotherapy in osteoblast lineage cells was investigated. Chemotherapy generates many stress responses in cells, including endoplasmic reticulum stress (ER stress), and oxidative stress. Some of the stress conditions have been associated with the regulation of Jagged1 expression (Paul et al., 2014). Several treatments were used to mimic or inhibit these stress responses and then Jagged1 mRNA and protein levels were analyzed within the cells.
293T, H29-Clone #7, MC3T3-E1 Clone #4(denoted as MC3T3 for abbreviation thereafter), MCF7TR, mouse mesenchymal stromal cell (MSC, isolated from BALB/c), 4T1.2, SCP28, SCP28-Vector and -Jagged1 cells, SCP28, RAW264.7, and SUM1315-M1B1 cells were cultured according to American Type Culture Collection instructions and the inventors' previous studies (Ell et al., 2013; Ren et al., 2008; Sethi et al., 2011; Zheng et al., 2014). MSC cells were derived previously and were cultured in DMEM supplemented with 10% FBS, 30 ng/ml bFGF, 100 U/ml penicillin, and 100 μg/ml streptomycin (Ren et al., 2008). All plasmids were transfected into different cell lines using Lipofectamine 2000 following the manufacturer's manual (Life Technologies, CA, USA). To generate stable cell lines, a pLEX-MCS based lentivirus vector or a pMSCV-hygro based retrovirus vector was used in our study. Lentiviruses were packaged in HEK293T cells while retroviruses were packaged by using H29 cell line. Conditional media from these packaging cells containing viruses were collected 2 days and 3 days after transfection. Recipient cell lines were exposed to conditional media containing viruses supplemented with 2 μg/mL Polybrene for 48 h. Infected cells were selected with puromycin or hygromycin to generate stable expressing cell lines. 293T and H29clone #7 are cell lines from female humans. All other cancer cell lines are breast cancer cell lines from either female human or mouse.

[2] = mouse, in vivo
Procedure: (§1) To analyze liver toxicity, the activity of alanine aminotransferase (ALT) and aspartate aminotransferase (AST) in the sera of these mice after the respective drug treatments was measured.
(§2) For IgG or 15D11 antibody treatment, mice were i.p. injected at the dosing of 10 mg/kg, twice a week.

[3] = In vivo toxicity of 15D11 (body weight, GI histology, ALT/AST, CBC, T cells)
Procedure: as §1, §2

[4] = test system: Notch downstream genes (human HES2, HEY1, HEY2); assay: Notch downstream gene expression in tumor cells co-cultured with MSC after chemotherapy; format: cell-based; conditions: co-culture tumor cells after chemotherapy

C[C@H]1CCC/C=C/[C@@H]2C[C@H](O)C[C@H]2[C@H](O)/C=C/C(=O)O1 [Brefeldin A (BFA), Brefeldin A]
Jagged1 expression in MSCs [1]: did not induce Jagged1 expression

ClC(Cl)(Cl)Cl [CCl4]
liver toxicity: ALT and AST activity in sera [2]: dramatic increase

O=S1(=O)N[C@@]2(CN1CC(F)(F)F)[C@@H]1CC[C@H]2Cc2ccc(/C=C/CN3CCC(C(F)(F)F)CC3)cc2C1 [GSI]
general toxicity based on body weight measurement ([3]; 15D11 10 mg/kg, twice a week): significant weight loss | GI track toxicity (H&E and Alcian blue staining) ([3]; mouse, in vivo): significant goblet cell metaplasia | liver toxicity: ALT and AST activity in sera ([3]; mouse, in vivo): no change

OO [H2O2]
Jagged1 expression in MSCs [1]: induced a strong Jagged1 expression

CC(=O)N[C@@H](CS)C(=O)O [N-Acetyl Cysteine]
block of cisplatin and docetaxel induced ROS production ([1]; MSCs): completely blocked | block of cisplatin-induced Jagged1 expression ([1]; MSCs): completely blocked

CC(=O)O[C@@]12CO[C@@H]1C[C@H](O)[C@@]1(C)C(=O)[C@H](O)C3=C(C)[C@@H](OC(=O)[C@H](O)[C@@H](NC(=O)OC(C)(C)C)c4ccccc4)C[C@@](O)([C@@H](OC(=O)c4ccccc4)[C@H]21)C3(C)C [docetaxel]
Notch downstream genes HES2, HEY1, HEY2 [4]: significantly upregulated | ROS production in MSCs [1]: induced ROS production

Tunicamycin
Jagged1 expression in MSCs [1]: did not induce Jagged1 expression
